Tests used:
Type in all cases: functional
K562 [1] = assay: Induction of cell cycle arrest in human K562 cells assessed as accumulation of cells at G0/G1 phase at 1.28 uM measured after 24 hrs by PI staining based flow cytometry analysis (reference value: 46.71%)
K562 [2] = assay: Induction of apoptosis in human K562 cells assessed as late apoptotic cells at 0.64 uM incubated for 24 hrs by annexinV and propidium iodide staining based flow cytometry analysis (reference value: 1.34%)
K562 [3] = assay: Induction of apoptosis in human K562 cells assessed as late apoptotic cells at 1.28 uM incubated for 24 hrs by annexinV and propidium iodide staining based flow cytometry analysis (reference value: 1.34%)
K562 [4] = assay: Induction of cell cycle arrest in human K562 cells assessed as accumulation of cells at G2/M phase at 1.28 uM measured after 24 hrs by PI staining based flow cytometry analysis (reference value: 25.62%)
K562 [5] = assay: Induction of cell cycle arrest in human K562 cells assessed as accumulation of cells at G0/G1 phase at 0.64 uM measured after 24 hrs by PI staining based flow cytometry analysis (reference value: 46.72%)
K562 [6] = assay: Induction of cell cycle arrest in human K562 cells assessed as accumulation of cells at G0/G1 phase at 2.56 uM measured after 24 hrs by PI staining based flow cytometry analysis (reference value: 46.72%)
K562 [7] = assay: Induction of cell cycle arrest in human K562 cells assessed as accumulation of cells at SubG1 phase at 2.56 uM measured after 24 hrs by PI staining based flow cytometry analysis (reference value: 2.21%)
K562 [8] = assay: Induction of apoptosis in human K562 cells assessed as early apoptotic cells at 0.64 uM incubated for 24 hrs by annexinV and propidium iodide staining based flow cytometry analysis (reference value: 1.17%)

Row | Compound | Activity (K562 [1]) [%] | Activity (K562 [2]) [%] | Activity (K562 [3]) [%] | Activity (K562 [4]) [%] | Activity (K562 [5]) [%] | Activity (K562 [6]) [%] | Activity (K562 [7]) [%] | Activity (K562 [8]) [%]
1 | O=C1c2ccccc2-c2n[nH]c3cccc1c23 | 28.15 | 1.14 | 1.25 | – | – | – | – | –
2 | CC(C)(C)n1cc(-c2ccnc(NCCCNS(=O)(=O)c3ccc(Cl)cc3)c2)c(-c2cccc(O)c2)n1 | – | – | – | 58.95 | 25.21 | 0.17 | 0.07 | 1.07

Source: ChEMBL document CHEMBL5634117 (Eur J Med Chem, 2023)
